According to the supplement of paper PMC10307832:

Key:
Test in all cases: relative viability (nuclei count vs DMSO), 5 days (fraction); higher = more cells survive
[1] = compound: O=C(O)C(Cc1ccccc1[N+](=O)[O-])=NNc1nc(-c2ccc(Cl)c(Cl)c2)cs1 (mixture of isomers) [4EGI-1] + CC1(C)CCC(c2ccc(Cl)cc2)=C(CN2CCN(c3ccc(C(=O)NS(=O)(=O)c4ccc(N[C@H](CCN5CCOCC5)CSc5ccccc5)c(S(=O)(=O)C(F)(F)F)c4)cc3)CC2)C1 [Navitoclax] (partner 0.5 µM)
How it was run: (§1)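 Relative viability is defined as nuclei in treated wells over nuclei in vehicle wells. Duplicate plates were run and medians reported. Lung cancer cell lines in 1536-well plates were dosed by pin tool one day after seeding, with one drug or with a fixed anchor-drug dose plus five library-drug doses (not always all listed) in √10 steps, and nuclei were counted after 5 days.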

[2] = compound: CN1CCN(CC1)C2=CC(=C(C=C2)NC3=NC=C4C(=N3)N(C5=CC=CC=C5C(=O)N4C)C)OC [XMD8-85] + CC(=O)Nc1cccc(-n2c(=O)n(C3CC3)c(=O)c3c(Nc4ccc(I)cc4F)n(C)c(=O)c(C)c32)c1 [Trametinib] (partner 0.02 µM)
How it was run: as §1

[3] = compound: CN1CCN(CC1)C2=CC(=C(C=C2)NC3=NC=C4C(=N3)N(C5=CC=CC=C5C(=O)N4C)C)OC [XMD8-85]
How it was run: (§2)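 Viability was defined as treated-well nuclei divided by vehicle-well nuclei, with the median taken over replicate plates. Cells from lung cancer lines sat overnight at 37 °C in 1536-well plates, received five √10-spaced library-drug doses by pinning on vehicle-anchored plates, and grew 5 days without medium change before one-step fixation, permeabilisation and Hoechst staining, 4× imaging and MetaXpress nuclear counts. Only plates with control CV under 25% and at least one doubling were kept.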

[4] = compound: O=C(O)C(Cc1ccccc1[N+](=O)[O-])=NNc1nc(-c2ccc(Cl)c(Cl)c2)cs1 (mixture of isomers) [4EGI-1]
How it was run: as §2

Row | Cell Line | relative viability ([1]; first compound 0.5 µM) | relative viability ([1]; first compound 1.581 µM) | relative viability ([1]; first compound 5 µM) | relative viability ([1]; first compound 15.81 µM) | relative viability ([1]; first compound 50 µM) | relative viability ([2]; first compound 0.08 µM) | relative viability ([2]; first compound 0.253 µM) | relative viability ([2]; first compound 0.8 µM) | relative viability ([2]; first compound 2.53 µM) | relative viability ([2]; first compound 8 µM) | relative viability ([3]; 0.08 µM) | relative viability ([3]; 0.253 µM) | relative viability ([3]; 0.8 µM) | relative viability ([3]; 2.53 µM) | relative viability ([3]; 8 µM) | relative viability ([4]; 0.5 µM) | relative viability ([4]; 1.581 µM) | relative viability ([4]; 5 µM) | relative viability ([4]; 15.81 µM) | relative viability ([4]; 50 µM)
1 | NCI-H2009 | 1.19 | 1.21 | 1.22 | 1.11 | 0.17 | 0.26 | 0.237 | 0.261 | 0.253 | 0.18 | 0.967 | 0.987 | 1 | 0.97 | 0.605 | 1.05 | 1.02 | 1.07 | 1.02 | 0.24
2 | RERF-LC-KJ | 0.902 | – | 0.858 | 0.632 | 0.706 | 0.887 | 0.853 | 0.873 | 0.904 | 0.727 | 0.992 | 0.939 | 1.07 | 1.13 | 0.82 | 1.1 | 0.629 | 0.936 | 0.805 | 0.637
3 | 201T | 1.25 | 1.21 | 1.2 | 1.19 | 1.19 | 0.718 | 0.746 | 0.738 | 0.681 | 0.617 | 1 | 0.983 | 0.986 | 0.978 | 0.757 | 1.05 | 0.955 | 1.05 | 0.965 | 0.806
4 | HCC-827 | 1.04 | 0.936 | 0.938 | – | 0.789 | 0.55 | 0.461 | 0.528 | 0.512 | 0.496 | 1.03 | 1.04 | 1.01 | 1.08 | 1.04 | 1.02 | 0.923 | 1.07 | – | 0.922
5 | NCI-H838 | 1.24 | – | 1.26 | 1.04 | 0.218 | 0.529 | 0.48 | 0.516 | 0.617 | 0.334 | 0.951 | 1.02 | 0.997 | 0.937 | 0.754 | 1.03 | – | 1.02 | 0.912 | 0.342
6 | NCI-H1734 | 0.931 | 0.901 | 0.96 | 0.851 | 0.492 | 0.654 | 0.712 | 0.704 | 0.604 | 0.519 | 0.946 | 0.988 | 1.11 | 1.08 | 0.758 | 1.06 | 0.949 | 1.14 | 0.831 | 0.353
7 | NCI-H441 | 0.467 | 0.552 | 0.449 | 0.511 | 0.203 | 0.4 | 0.427 | 0.463 | 0.494 | 0.234 | 1.09 | 0.92 | 1.2 | 1.29 | 0.801 | 1.22 | 0.868 | 1.13 | 0.791 | 0.307
8 | NCI-H1355 | 1.07 | 0.95 | 0.841 | 0.644 | 0.677 | 0.414 | 0.424 | 0.384 | 0.356 | 0.284 | 0.995 | 0.941 | 1.01 | 1.13 | 0.749 | 1.04 | 0.93 | 0.948 | 0.862 | 0.566
9 | HCC-44 | 0.957 | 0.596 | 0.949 | 0.958 | 0.35 | 1.11 | 1.12 | 1.12 | 1.04 | 1.01 | 1.02 | 0.948 | – | 1.02 | 0.812 | 0.999 | 0.507 | 0.993 | 0.877 | 0.695
10 | NCI-H2085 | 1.19 | 1.01 | 1.2 | 0.931 | 0.743 | 0.651 | 0.469 | 0.427 | 0.514 | 0.355 | 0.945 | 0.966 | 0.995 | 0.935 | 0.856 | 1.06 | 1.01 | 1.03 | 0.799 | 0.663
11 | NCI-H520 | 1.23 | 1.11 | 1.14 | 1.02 | 0.431 | – | 0.728 | 0.689 | 0.604 | 0.496 | 0.99 | 0.975 | 1.03 | 1.04 | 0.813 | 1.24 | 0.952 | 1.16 | 0.917 | 0.64
12 | NCI-H647 | 1.27 | – | 1.12 | 0.995 | 0.307 | 0.478 | 0.486 | 0.485 | 0.465 | 0.28 | 0.991 | 0.912 | 1.01 | 1.06 | 0.758 | 1.01 | – | 1.1 | 0.855 | 0.446
13 | NCI-H1944 | 1.19 | – | 1.07 | 0.969 | 0.94 | 0.388 | 0.453 | 0.462 | 0.462 | 0.369 | 0.873 | 0.993 | 1.02 | 1.22 | 0.973 | 1.03 | – | 0.996 | 0.738 | 0.574
14 | LU99A | 0.765 | – | 0.87 | 0.986 | 0.428 | 0.51 | 0.538 | 0.55 | 0.53 | 0.433 | 0.895 | 1 | 1 | 0.973 | 0.831 | 0.989 | 0.859 | 0.999 | 0.885 | 0.564
15 | SW 1573 | 1.26 | 0.927 | 0.947 | 0.843 | 0.674 | 0.542 | 0.522 | 0.594 | 0.427 | 0.262 | 1.02 | 1.1 | 1.08 | 0.982 | – | 1.24 | 0.862 | 1.03 | 0.673 | 0.445
16 | ChaGo-K-1 | 0.775 | – | 1.1 | 0.773 | 0.247 | 0.926 | 0.908 | 0.944 | 0.962 | 0.668 | 0.953 | 0.969 | 0.917 | 1.06 | 0.959 | 0.976 | 0.762 | 1.03 | 0.861 | 0.616
